Key:
Type in all cases: biochemical
Settings in all cases: fluorogenic substrate, pH 7.5
[1] = target: T1, catalytic domain of human stromelysin (MMP-3) (Homo sapiens, UniProt P08254); assay: enzymatic activity of the catalytic domain of human stromelysin (MMP-3)
T1 construct: catalytic domains of human stromelysin (MMP-3) and neutrophil collagenase (MMP-8); made in house
Description: (§1) Preparation, and determination of the enzymatic activity, of the catalytic domains of human stromelysin (MMP-3) and neutrophil collagenase (MMP-8).
(§2) The two enzymes, i.e. stromelysin (MMP-3) and neutrophil collagenase (MMP-8), were prepared in accordance with Ye et al. (Biochemistry; 31 (1992) pages 11231-11235). In order to measure the enzyme activity, or the enzyme inhibitor effect, 10 μl of enzyme solution were incubated, for 15 minutes, with 10 μl of a 3% (v/v) buffered solution of dimethyl sulfoxide which contained the enzyme inhibitor, where appropriate. After 10 μl of a 3% (v/v) aqueous solution of dimethyl sulfoxide containing 1 mmol of the substrate/l had been added, the enzyme reaction was monitored by fluorescence spectroscopy (328 nm (ex)/393 nm (em)).
(§3) The enzyme activity is expressed as increase in extinction/minute. The IC50 values listed in table 2 were determined as being those inhibitor concentrations which in each case led to a 50% inhibition of the enzyme.
(§4) The buffer solution contained 0.05% Brij (Sigma, Deisenhofen, Germany) and also 0.1 mol of Tris/HCl/l, 0.1 mol of NaCl/l, 0.01 mol of CaCl2/l and 0.1 mol of piperazine-N,N′-bis[2-ethanesulfonic acid]/l (pH=7.5). […]

[2] = target: T2, catalytic domain of human collagenase-3 (MMP-13) (Homo sapiens, UniProt P45452); assay: enzymatic activity of the catalytic domain of human collagenase-3 (MMP-13)
T2 construct: Determining the enzymatic activity of the catalytic domain of human collagenase-3 (MMP-13); purchased INVITEK, Berlin 30 100 803
Description: Determining the enzymatic activity of the catalytic domain of human collagenase-3 (MMP-13).
(§5) Activation of the Proenzyme:
(§6) 2 parts by volume of proenzyme were incubated, at 37° C. for 1.5 hours, with 1 part by volume of APMA solution. The APMA solution was prepared from a 10 mmol/l solution of p-aminophenylmercuric acetate in 0.1 mmol/l NaOH by diluting with 3 parts by volume of Tris/HCl buffer pH 7.5 (see below). The pH was adjusted to between 7.0 and 7.5 by adding 1 mmol/l HCl. After the enzyme had been activated, it was diluted with the Tris/HCl buffer down to a concentration of 1.67 μg/ml.
(§7) In order to measure the enzyme activity, 10 μl of enzyme solution were incubated, for 15 minutes, with 10 μl of a 3% (v/v) buffered solution of dimethyl sulfoxide (reaction 1). […]
Both in the case of reaction 1 and in the case of reaction 2, the enzyme reaction was monitored by fluorescence spectroscopy (328 nm (extinction)/393 nm (emission)) after 10 μl of a 3% (v/v) aqueous solution of dimethyl sulfoxide containing 0.075 mmol of the substrate/l had been added. […]
(§8) The inhibitor effect was calculated as a percentage inhibition in accordance with the following formula: % inhibition=100−[(increase in extinction/minute in reaction 2)/(increase in extinction/minute in reaction 1)×100]. […]

[3] = target: T3, catalytic domain of human gelatinase-A (MMP-2) (Homo sapiens, UniProt P08253); assay: enzymatic activity of the catalytic domain of human gelatinase-A (MMP-2)
T3 construct: Determining the enzymatic activity of the catalytic domain of human gelatinase-A (MMP-2); purchased INVITEK, Berlin 30 100 602
Description: Determining the enzymatic activity of the catalytic domain of human gelatinase-A (MMP-2).
as §5
as §6, with “0.5 hour,” for “1.5 hours,”, “mmol/l” for “mmol/l solution of”, “acetate solution” for “acetate”, “mmol HCl/l.” for “mmol/l HCl.”, “0.83” for “1.67”, “μg/ml. In order to measure the enzyme activity, 10 μl of enzyme solution were incubated, for 15 minutes, with 10 μl of a 3% (v/v) buffered solution of dimethyl sulfoxide (reaction 1). […]” for “μg/ml.”
Both in the case of reaction 1 and in the case of reaction 2, the enzyme reaction was monitored by fluorescence spectroscopy (328 nm (extinction)/393 nm (emission)) after 10 μl of a 3% (v/v) aqueous solution of dimethyl sulfoxide containing 0.3 mmol of the substrate/l had been added.
(§9) The enzyme activity was expressed as increase in extinction/minute.
as §8

[4] = target: T4, catalytic domain of human neutrophil collagenase (MMP-8) (Homo sapiens, UniProt P22894); assay: enzymatic activity of the catalytic domain of human neutrophil collagenase (MMP-8)
T4 construct: catalytic domains of human stromelysin (MMP-3) and neutrophil collagenase (MMP-8); made in house
Description: as §1, §2, §3, §4

[5] = target: T5, catalytic domain of human gelatinase-B (MMP-9) (Homo sapiens, UniProt P14780); assay: enzymatic activity of the catalytic domain of human gelatinase-B (MMP-9)
T5 construct: Determining the enzymatic activity of the catalytic domain of human gelatinase-B (MMP-9); purchased Roche, Mannheim 1 758 896
Description: Determining the enzymatic activity of the catalytic domain of human gelatinase-B (MMP-9).
as §5
2parts by volume of proenzyme were incubated, at 37° C. for 4 hours, with 1 part by volume of APMA solution. The APMA solution was prepared from a 10 mmol/l p-aminophenylmercuric acetate solution in 0.1 mmol/l NaOH by diluting with 3 parts by volume of Tris/HCl buffer, pH 7.5 (see below). The pH was adjusted to between 7.0 and 7.5 by adding 1 mmol/l HCl. After the enzyme had been activated, it was diluted with the Tris/HCl buffer down to a concentration of 4.2 mU/ml.
as §7
Both in the case of reaction 1 and in the case of reaction 2, the enzyme reaction was monitored by fluorescence spectroscopy (328 nm (extinction)/393 nm (emission)) after 10 μl of a 3% (v/v) aqueous solution of dimethyl sulfoxide containing 0.15 mmol of the substrate/l had been added.
as §9, §8

[6] = target: T6, catalytic domain of human collagenase-1 (MMP-1) (Homo sapiens, UniProt P03956); assay: enzymatic activity of the catalytic domain of human collagenase-1 (MMP-1)
T6 construct: Determining the enzymatic activity of the catalytic domain of human collagenase-1 (MMP-1); purchased Biocol, Potsdam MMP1
T6 sequence (P03956 100-269 limits assumed): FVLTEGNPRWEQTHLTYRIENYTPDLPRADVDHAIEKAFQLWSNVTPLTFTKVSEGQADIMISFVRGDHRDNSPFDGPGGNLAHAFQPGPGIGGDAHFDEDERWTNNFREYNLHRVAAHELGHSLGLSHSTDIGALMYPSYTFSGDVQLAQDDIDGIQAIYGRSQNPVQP
Description: Determining the enzymatic activity of the catalytic domain of human collagenase-1 (MMP-1).
as §5
as §6, with “are” for “were”, “1 hour,” for “1.5 hours,”, “is” for “was”, “has” for “had”, “2.5” for “1.67”, “μg/ml. In order to measure the enzyme activity, 10 μl of enzyme solution are incubated, for 15 minutes, with 10 μl of a 3% (v/v) buffered solution of dimethyl sulfoxide (reaction 1). […]” for “μg/ml.”
Both in the case of reaction 1 and in the case of reaction 2, the enzyme reaction is monitored by fluorescence spectroscopy (328 nm (extinction)/393 nm (emission)) after 10 μl of a 3% (v/v) aqueous solution of dimethyl sulfoxide which contains 0.3 mmol of the substrate/l has been added. The enzyme activity is expressed as increase in extinction/minute. The inhibitor effect is calculated as percentage inhibition in accordance with the following formula: % inhibition=100−[(increase in extinction/minute in reaction 2)/(increase in extinction/minute in reaction 1)×100]. […]

T1 sequence (P08254 100-272 limits assumed): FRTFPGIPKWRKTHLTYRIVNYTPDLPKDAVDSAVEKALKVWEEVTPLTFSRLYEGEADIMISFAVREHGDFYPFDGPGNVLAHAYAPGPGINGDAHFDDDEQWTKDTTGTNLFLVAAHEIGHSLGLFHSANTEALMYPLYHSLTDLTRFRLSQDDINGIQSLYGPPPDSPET
T3 sequence (P08253 110-465 limits assumed): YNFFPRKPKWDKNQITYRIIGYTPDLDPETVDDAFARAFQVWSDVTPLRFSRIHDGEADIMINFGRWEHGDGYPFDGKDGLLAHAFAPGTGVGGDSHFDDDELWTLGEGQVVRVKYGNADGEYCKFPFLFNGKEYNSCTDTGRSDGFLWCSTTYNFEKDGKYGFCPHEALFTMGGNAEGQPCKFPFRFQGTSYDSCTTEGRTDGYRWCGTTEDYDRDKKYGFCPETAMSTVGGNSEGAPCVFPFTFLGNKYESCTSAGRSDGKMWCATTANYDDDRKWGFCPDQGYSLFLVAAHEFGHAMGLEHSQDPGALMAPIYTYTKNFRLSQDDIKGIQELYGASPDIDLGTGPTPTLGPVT
T4 sequence (P22894 100-262 limits assumed): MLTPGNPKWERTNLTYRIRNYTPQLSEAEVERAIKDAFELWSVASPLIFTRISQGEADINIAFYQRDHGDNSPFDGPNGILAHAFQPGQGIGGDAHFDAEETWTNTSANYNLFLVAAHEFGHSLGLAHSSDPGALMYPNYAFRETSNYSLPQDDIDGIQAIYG
T5 sequence (P14780 107-444 limits assumed): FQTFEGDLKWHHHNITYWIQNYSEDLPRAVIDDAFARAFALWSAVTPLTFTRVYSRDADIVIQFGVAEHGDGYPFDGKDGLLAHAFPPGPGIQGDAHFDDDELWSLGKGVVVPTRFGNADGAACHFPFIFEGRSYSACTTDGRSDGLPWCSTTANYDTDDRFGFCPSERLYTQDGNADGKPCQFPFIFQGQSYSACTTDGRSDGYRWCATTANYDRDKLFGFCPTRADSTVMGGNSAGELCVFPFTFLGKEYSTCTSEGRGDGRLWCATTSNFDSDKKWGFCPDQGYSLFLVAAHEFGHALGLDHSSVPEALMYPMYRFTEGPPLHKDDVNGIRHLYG

## O=C(NO)C1c2c(sc3ccccc23)C(O)CN1S(=O)(=O)c1ccc(-c2ccc(Cl)cc2)cc1 (stereo not drawn) [Example 1, 2-(4′-Chlorobiphenyl-4-sulfonyl)-4-hydroxy-1,2,3,4-tetrahydrobenzo[4,5]thieno[3,2-c]pyridine-1-carboxylic acid hydroxyamide]
[1]
  IC50: 70 nM
[2]
  IC50: 6.3 nM
[3]
  IC50: 2.5 nM
[4]
  IC50: 13 nM
[5]
  IC50: 3.5 nM
[6]
  IC50: 700 nM

— patent US7399770B2, “Thieno-imino acid derivatives for use as matrix metalloproteinase inhibitors” (SANOFI-AVENTIS Deutschland GmbH, priority 2004, dated 2008)
